The text below walks through data of patent US12655124B2, “Heterocyclic compounds as modulators of stimulator of interferon genes (STING)” (RYVU THERAPEUTICS S.A., priority 2019, dated 2026).

Chain of human STING (Q86WV6 whole entry H232R): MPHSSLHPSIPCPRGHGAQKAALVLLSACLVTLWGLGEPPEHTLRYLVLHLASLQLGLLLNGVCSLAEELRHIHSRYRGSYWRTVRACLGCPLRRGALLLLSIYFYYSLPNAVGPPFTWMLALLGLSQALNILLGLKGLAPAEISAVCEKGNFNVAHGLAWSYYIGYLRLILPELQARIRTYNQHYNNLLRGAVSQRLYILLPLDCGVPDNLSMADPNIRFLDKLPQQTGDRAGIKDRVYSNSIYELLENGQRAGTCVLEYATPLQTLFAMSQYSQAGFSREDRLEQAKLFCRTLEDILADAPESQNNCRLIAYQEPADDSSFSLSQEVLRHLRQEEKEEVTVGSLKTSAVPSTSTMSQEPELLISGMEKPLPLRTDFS

The assay has as its target human STING (Homo sapiens, UniProt Q86WV6). In words: Fluorescence Thermal Shift assay (hSTING FTS binding assay).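 Also: STING preincubated with compound for 20 min in HEPES NaCl buffer pH 7.5.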 As to conditions: ΔTm, STING 0.1 mg/mL, SyproOrange, 25 to 99° C. As to the method:
Fluorescence Thermal Shift Assay Compounds of the present invention were tested for binding to human STING in Fluorescence Thermal Shift assay. […] Final STING concentration was 0.1 mg/mL. Thermal unfolding was performed in Real-Time PCR QuantStudio 6 Flex System (Applied Biosystems), from 25 to 99° C., with continuous ramp mode and ramp rate 0.033° C./s. The data were analyzed using Protein Thermal Shift Software (ThermoFisher).
As to `Cc1ccc(N2CCC[C@H](N(Cc3ccnc(C)c3)Cc3cn(C4CC4)c4cc(N5CCC[C@H](N)C5)c(F)cc4c3=O)C2)cn1` [Example 16, 7-[(3S)-3-Aminopiperidin-1-yl]-1-cyclopropyl-6-fluoro-3-({[(3S)-1-(6-methylpyridin-3-yl)piperidin-3-yl][(2-methylpyridin-4-yl)methyl]amino}methyl)-1,4-dihydroquinolin-4-one], the “hSTING FTS binding assay (ΔT ° C.)” value was “+++ (ΔTm≥20° C.)”.
Consider `CNCCOc1cc2c(cc1F)c(=O)c(CN(Cc1ccnc(C)c1)[C@H]1CCCN(c3ccc(C)nc3)C1)cn2C1CC1.Cl` [Example 11, 1-Cyclopropyl-6-fluoro-7-[2-(methylamino)ethoxy]-3-({[(3S)-1-(6-methylpyridin-3-yl)piperidin-3-yl][(2-methylpyridin-4-yl)methyl]amino}methyl)-1,4-dihydroquinolin-4-one Hydrochloride], for which the “hSTING FTS binding assay (ΔT ° C.)” value was “+++ (ΔTm≥20° C.)”.
With `Cc1cc(CN(Cc2cn(C)c3ccccc3c2=O)[C@H]2CCCN(c3cccc(N)c3)C2)ccn1.Cl` [Example 1, 3-({[(3S)-1-(3-Aminophenyl)piperidin-3-yl][(2-methylpyridin-4-yl)methyl]amino}methyl)-1-methyl-1,4-dihydroquinolin-4-one Hydrochloride], the “hSTING FTS binding assay (ΔT ° C.)” value is given as “+ (ΔTm≤10° C.)”.
Take `Cc1cc(CN(Cc2cn(C(C)C)c3ccccc3c2=O)[C@H]2CCCN(c3ccc(N)nc3)C2)ccn1.Cl` [Example 34, 3-({[(3S)-1-(6-aminopyridin-3-yl)piperidin-3-yl][(2-methylpyridin-4-yl)methyl]amino}methyl)-1-(propan-2-yl)-1,4-dihydroquinolin-4-one Hydrochloride]: the “hSTING FTS binding assay (ΔT ° C.)” value was “+++ (ΔTm≥20° C.)”.
Turning to `Cc1ccc(N2CCC[C@H](N(Cc3ccnc(C)c3)Cc3cn(C4CC4)c4cc(NCCN)c(F)cc4c3=O)C2)cn1` [Example 8, 7-[(2-Aminoethyl)amino]-1-cyclopropyl-6-fluoro-3-({[(3S)-1-(6-methylpyridin-3-yl)piperidin-3-yl][(2-methylpyridin-4-yl)methyl]amino}methyl)-1,4-dihydroquinolin-4-one], the “hSTING FTS binding assay (ΔT ° C.)” value was “+++ (ΔTm≥20° C.)”.
The same measure for `Cc1cc(CN(Cc2cn(C)c3cc(Br)ccc3c2=O)[C@H]2CCCN(c3ccc(N)nc3)C2)ccn1.Cl` [Example 29, 3-({[(3S)-1-(6-aminopyridin-3-yl)piperidin-3-yl][(2-methylpyridin-4-yl)methyl]amino}methyl)-7-bromo-1-methyl-1,4-dihydroquinolin-4-one Hydrochloride]: “+++ (ΔTm≥20° C.)”; for `Cc1ccc(N2CCC[C@H](N(Cc3ccnc(C)c3)Cc3cn(C4CC4)c4cc(N5CC[C@@H](CN)C5)c(F)cc4c3=O)C2)cn1.Cl` [Example 20, 7-[(3S)-3-(aminomethyl)pyrrolidin-1-yl]-1-cyclopropyl-6-fluoro-3-({[(3S)-1-(6-methylpyridin-3-yl)piperidin-3-yl][(2-methylpyridin-4-yl)methyl]amino}methyl)-1,4-dihydroquinolin-4-one Hydrochloride]: “+++ (ΔTm≥20° C.)”; for `Cc1cc(CN(Cc2cn(C)c3ccccc3c2=O)[C@H]2CCCN(c3ccc(CN)nc3)C2)ccn1.Cl` [Example 3, 3-({[(3S)-1-[6-(Aminomethyl)pyridin-3-yl]piperidin-3-yl][(2-methylpyridin-4-yl)methyl]amino}methyl)-1-methyl-1,4-dihydroquinolin-4-one Hydrochloride]: “+ (ΔTm≤10° C.)”.
Next, `Cc1ccc(N2CCC[C@H](N(Cc3ccnc(C)c3)Cc3cn(C4CC4)c4cc(N5CC(CO)C5)c(F)cc4c3=O)C2)cn1` [Example 27, 1-cyclopropyl-6-fluoro-7-[3-(hydroxymethyl)azetidin-1-yl]-3-({[(3S)-1-(6-methylpyridin-3-yl)piperidin-3-yl][(2-methylpyridin-4-yl)methyl]amino}methyl)-1,4-dihydroquinolin-4-one]: “+++ (ΔTm≥20° C.)”; `Cc1cc(CN(Cc2cn(C)c3ccccc3c2=O)[C@H]2CCCN(c3ccc(N)nc3)C2)ccn1` [Example 2, 3-({[(3S)-1-(6-Aminopyridin-3-yl)piperidin-3-yl][(2-methylpyridin-4-yl)methyl]amino}methyl)-1-methyl-1,4-dihydroquinolin-4-one]: “+++ (ΔTm≥20° C.)”.
Next, `Cc1ccc(N2CCC[C@H](N(Cc3ccnc(C)c3)Cc3cn(C4CC4)c4cc(N5CCC(N)C(F)(F)C5)c(F)cc4c3=O)C2)cn1` (stereo partly drawn) [Example 26, 7-(4-amino-3,3-difluoropiperidin-1-yl)-1-cyclopropyl-6-fluoro-3-({[(3S)-1-(6-methylpyridin-3-yl)piperidin-3-yl][(2-methylpyridin-4-yl)methyl]amino}methyl)-1,4-dihydroquinolin-4-one]: “+++ (ΔTm≥20° C.)”; `CNC1CCN(c2cc3c(cc2F)c(=O)c(CN(Cc2ccnc(C)c2)[C@H]2CCCN(c4ccc(C)nc4)C2)cn3C2CC2)CC1.Cl` [Example 19, 1-cyclopropyl-6-fluoro-7-[4-(methylamino)piperidin-1-yl]-3-({[(3S)-1-(6-methylpyridin-3-yl)piperidin-3-yl][(2-methylpyridin-4-yl)methyl]amino}methyl)-1,4-dihydroquinolin-4-one Hydrochloride]: “+++ (ΔTm≥20° C.)”.
Consider `Cc1ccc(N2CCC[C@H](N(Cc3ccnc(C)c3)Cc3cn(C4CC4)c4cc(N5CCC(C(=O)O)CC5)c(F)cc4c3=O)C2)cn1` [Example 67, 1-[1-cyclopropyl-6-fluoro-3-({[(3S)-1-(6-methylpyridin-3-yl)piperidin-3-yl][(2-methylpyridin-4-yl)methyl]amino}methyl)-4-oxo-1,4-dihydroquinolin-7-yl]piperidine-4-carboxylic Acid], for which the “hSTING FTS binding assay (ΔT ° C.)” value is “+++ (ΔTm≥20° C.)”.
For `Cc1ccc(N2CCC[C@H](N(Cc3ccnc(C)c3)Cc3cn(C4CC4)c4cc(N5CC[C@H](CN)C5)c(F)cc4c3=O)C2)cn1.Cl` [Example 15, 7-[(3R)-3-(Aminomethyl)pyrrolidin-1-yl]-1-cyclopropyl-6-fluoro-3-({[(3S)-1-(6-methylpyridin-3-yl)piperidin-3-yl][(2-methylpyridin-4-yl)methyl]amino}methyl)-1,4-dihydroquinolin-4-one Hydrochloride], the “hSTING FTS binding assay (ΔT ° C.)” value is “+++ (ΔTm≥20° C.)”.
With `Cc1ccc(N2CCC[C@H](N(Cc3ccnc(C)c3)Cc3cn(C4CC4)c4cc(N)c(F)cc4c3=O)C2)cn1` [Example 7, 7-Amino-1-cyclopropyl-6-fluoro-3-({[(3S)-1-(6-methylpyridin-3-yl)piperidin-3-yl][(2-methylpyridin-4-yl)methyl]amino}methyl)-1,4-dihydroquinolin-4-one], the “hSTING FTS binding assay (ΔT ° C.)” value is given as “+++ (ΔTm≥20° C.)”.
Next, `Cc1cnc(N2C[C@@H](F)C[C@H](N(Cc3ccnc(C)c3)Cc3cn(C4CC4)c4cc(N5CCC[C@H](O)C5)c(F)cc4c3=O)C2)cn1` [Example 82, 1-cyclopropyl-6-fluoro-3-({[(3S,5S)-5-fluoro-1-(5-methylpyrazin-2-yl)piperidin-3-yl][(2-methylpyridin-4-yl)methyl]amino}methyl)-7-[(3S)-3-hydroxypiperidin-1-yl]-1,4-dihydroquinolin-4-one]: “++ (10<ΔTm<20° C.)”; `CN[C@H]1CCN(c2cc3c(cc2F)c(=O)c(CN(Cc2ccnc(C)c2)[C@H]2CCCN(c4ccc(C)nc4)C2)cn3C2CC2)C1.Cl` [Example 58, 1-Cyclopropyl-6-fluoro-7-[(3S)-3-(methylamino)pyrrolidin-1-yl]-3-({[(3S)-1-(6-methylpyridin-3-yl)piperidin-3-yl][(2-methylpyridin-4-yl)methyl]amino}methyl)-1,4-dihydroquinolin-4-one Hydrochloride]: “+++ (ΔTm≥20° C.)”.
Next, `CN[C@@H]1CCN(c2cc3c(cc2F)c(=O)c(CN(Cc2ccnc(C)c2)[C@H]2CCCN(c4ccc(C)nc4)C2)cn3C2CC2)C1.Cl` [Example 55, 1-Cyclopropyl-6-fluoro-7-[(3R)-3-(methylamino)pyrrolidin-1-yl]-3-({[(3S)-1-(6-methylpyridin-3-yl)piperidin-3-yl][(2-methylpyridin-4-yl)methyl]amino}methyl)-1,4-dihydroquinolin-4-one Hydrochloride]: “+++ (ΔTm≥20° C.)”.
Regarding `Cc1cc(CN(Cc2cn(C(C)C)c3cc(N4CC[C@@H](O)C4)ccc3c2=O)[C@H]2CCCN(c3ccnnc3)C2)ccn1` [Example 49, 7-[(3R)-3-hydroxypyrrolidin-1-yl]-3-({[(2-methylpyridin-4-yl)methyl][(3S)-1-(pyridazin-4-yl)piperidin-3-yl]amino}methyl)-1-(propan-2-yl)-1,4-dihydroquinolin-4-one], the “hSTING FTS binding assay (ΔT ° C.)” value is “+ (ΔTm≤10° C.)”.
As to `Cc1ccc(N2CCC[C@H](N(Cc3ccnc(C)c3)Cc3cn(C4CC4)c4nc(N5CC[C@@H](O)C5)c(F)cc4c3=O)C2)cn1.Cl` [Example 37, 1-cyclopropyl-6-fluoro-7-[(3R)-3-hydroxypyrrolidin-1-yl]-3-({[(3S)-1-(6-methylpyridin-3-yl)piperidin-3-yl][(2-methylpyridin-4-yl)methyl]amino}methyl)-1,4-dihydro-1,8-naphthyridin-4-one Hydrochloride], the “hSTING FTS binding assay (ΔT ° C.)” value is “+++ (ΔTm≥20° C.)”.
For the compound `Cc1ccc(N2CCC[C@H](N(Cc3ccnc(C)c3)Cc3cn(C4CC4)c4cc(N5CCC(F)(CN)C5)c(F)cc4c3=O)C2)cn1` (stereo partly drawn) [Example 30, 7-[3-(aminomethyl)-3-fluoropyrrolidin-1-yl]-1-cyclopropyl-6-fluoro-3-({[(3S)-1-(6-methylpyridin-3-yl)piperidin-3-yl][(2-methylpyridin-4-yl)methyl]amino}methyl)-1,4-dihydroquinolin-4-one], the “hSTING FTS binding assay (ΔT ° C.)” value is on record as “+++ (ΔTm≥20° C.)”.
